# Reference: patent US5643784A, “Indan derivatives” (H, Lundbeck A/S, priority 1990, dated 1997)
# Columns and labels:
# 5-HT2 receptors = target: T1, 5-HT2 receptors (Rattus norvegicus, UniProt P14842); test: Inhibition of 3H-ketanserin binding to 5-HT2 receptors in rat cortex in vitro; conditions: 3H-Ketanserin 0.5 nM, rat cortex, 37° C., 30 min; read-out: Receptor Binding; IC50 5-HT2 3H-Ket
# T1 construct: cortical tissue is dissected and weighed; from tissue; host or cells: cortex of male Wistar rats, crude membranes
# Procedure: Method in Hyttel, Pharmacology & Toxicology, 61, 126-129, 1987.
# Male Wistar (Mol:Wist) rats (125-250 g) are sacrificed and cortical tissue is dissected and weighed. The tissue is homogenized (Ultra Turrax, 10 sec.) in 10 ml of ice-cold 50 mM tris buffer pH 7.7 (at 25° C.). The centrifuge glassware used in this step has been rinsed by sonication for 10 min. in ethanol. The homogenate is centrifuged twice at 20,000 g for 10 min. at 4° C. with rehomogenization of the pellet in 10 ml ice-cold buffer. The final pellet is homogenized in 500 vol (w/v) ice-cold buffer.
# Incubation tubes kept on ice in triplicate receive 100 μl of drug solution in water (or water for total binding) and 2000 μl of tissue suspension (final tissue content corresponds to 4 mg original tissue). […] After incubation for 30 min. the samples are filtered under vacuum (0-50 mBar) through Whatman GF/F filters (25 mm). The tubes are rinsed with 5 ml ice-cold buffer which are then poured on the filters. Thereafter, the filters are washed with 2×5 ml of buffer. The filters are placed in counting vials and 4 ml of appropriate scintillation fluid (e.g. Picofluor™15) are added. After shaking for 1 h and storage 2 hrs in the dark the content of radioactivity is determined by liquid scintillation counting. Specific binding is obtained by subtracting the nonspecific binding in the presence of 1 μM mianserin.
# (§1) For determination of the inhibition of binding five concentrations of drugs covering 3 decades are used.
# The IC50 value is determined as the concentration at which the binding is 50% of the total binding in control samples minus the nonspecific binding in the presence of 1 μM mianserin.
# α1 adrenoceptors = test: Inhibition of 3H-prazosin binding to α1 adrenoceptors in rat brain in vitro; conditions: 3H-Prazosin 0.25 nM, rat brain, 25° C., 20 min; read-out: Receptor Binding; IC50 α1 3H-Praz
# Procedure: INHIBITION OF ^3 H-PRAZOSIN BINDING TO α1 ADRENOCEPTORS IN RAT BRAIN IN VITRO
# Method and results in Hyttel & Larsen, J. Neurochem, 44, 1615-1622, 1985; Skarsfeldt & Hyttel, Eur. J. Pharmacol. 125, 323-340, 1986.
# Male Wistar (Mol:Wist) rats (125-200 g) are sacrificed and brain tissue is dissected and weighed. The tissue is homogenized (Ultra Turrax, 10 sec.) in 10 ml of ice-cold […] Tris buffer pH 7,7 (at 25° C.). The homogenate is centrifuged twice at 20,000 g for 10 min. at 4° C. with rehomogenization of the pellet in 10 ml ice-cold buffer. The final pellet is homogenized in 400 vol (w/v) ice-cold buffer.
# Incubation tubes kept on ice in triplicate receive 100 μl of drug solution in water (or water for total binding) and 4000μl of tissue suspension (final tissue content corresponds to 10 mg original tissue). The binding experiment is initiated by addition of 100 μl of ^3 H-Prazosin (final concentration 0.25 nM) and by placing the tubes in a 25° C. water bath. After incubation for 20 min. the samples are filtered under vacuum (0-50 mBar) through Whatman GF/F filters (25 mm). The tubes are rinsed with 5 ml ice-cold buffer which then are poured on the filters. Thereafter, the filters are washed with 5 ml of buffer. The filters are placed in counting vials and 4 ml of appropriate scintillation fluid (e.g. Picofluor™15) are added. After shaking for 1 h and storage 2 hrs in the dark the content of radioactivity is determined by liquid scintillation counting. Specific binding is obtained by subtracting the nonspecific binding in the presence of 1 μM of Prazosin.
# as §1
# The measured cpm are plotted against drug concentration on semilogarithmic paper and the best fitting S-shaped curve is drawn. The IC50 value is determined as the concentration at which the binding is 50% of the total binding in control samples minus the nonspecific binding in the presence of 1 μM of Prazosin.
# ^3 H-Prazosin=[furoyl-5-^3 H]-Prazosin from New England Nuclear, specific activity approximately 20 Ci/mmol.
# T1 sequence (P14842 whole entry): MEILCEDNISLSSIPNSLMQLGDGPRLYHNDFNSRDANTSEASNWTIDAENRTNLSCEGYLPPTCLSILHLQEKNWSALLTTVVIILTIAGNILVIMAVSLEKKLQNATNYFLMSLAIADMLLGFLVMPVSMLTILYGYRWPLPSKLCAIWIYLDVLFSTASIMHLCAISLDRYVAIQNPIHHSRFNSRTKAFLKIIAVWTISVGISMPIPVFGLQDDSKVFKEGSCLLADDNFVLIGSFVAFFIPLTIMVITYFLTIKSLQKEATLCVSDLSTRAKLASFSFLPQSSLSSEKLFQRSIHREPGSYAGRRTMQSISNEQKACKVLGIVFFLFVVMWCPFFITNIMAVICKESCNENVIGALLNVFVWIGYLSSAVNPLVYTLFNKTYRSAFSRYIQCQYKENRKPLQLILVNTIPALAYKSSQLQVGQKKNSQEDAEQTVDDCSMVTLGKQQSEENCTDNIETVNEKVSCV
SMILES,IC50 (5-HT2 receptors),IC50 (α1 adrenoceptors)
"Fc1ccc([C@@H]2C[C@@H](N3CCN(CCN4CCCNC4=S)CC3)c3ccc(Cl)cc32)cc1 (relative stereo) [Compound 32, Trans-1-[2-[4-[5-chloro-3-(4-fluorophenyl)-2,3-dihydro-1H-inden-1-yl]piperazin-1-yl]ethyl]-tetrahydro-2(1H)-pyrimidinethione]",0.0015 µM,0.17 µM
"OCCN1CCN([C@H]2C[C@H](c3ccc(F)cc3)c3cc(F)ccc32)CC1 (single isomer, unassigned) [(+)-2]",0.012 µM,0.072 µM
"OCCN1CCN([C@H]2C[C@H](c3ccc(F)cc3)c3cc(Cl)ccc32)CC1 (single isomer, unassigned) [(+)-3]",0.23 µM,2.5 µM
"CC(C)N1CCN(CCN2CCN([C@H]3C[C@H](c4ccc(F)cc4)c4cc(Cl)ccc43)CC2)C1=O (single isomer, unassigned) [(+)-11]",0.075 µM,0.34 µM
"Fc1ccc([C@@H]2C[C@@H](N3CCN(CCN4CCCNC4=S)CC3)c3ccc(Cl)cc32)cc1 (single isomer, unassigned) [(+)-32, (+)-Trans-1-[2-[4-[5-chloro-3-(4-fluorophenyl)-2,3-dihydro-1H-inden-1-yl]piperazin-1-yl]ethyl]-tetrahydro-2(1H)-pyrimidinethione]",0.021 µM,0.35 µM
"OCCN1CCN([C@H]2C[C@H](c3ccc(F)cc3)c3cc(F)ccc32)CC1 (single isomer, unassigned) [(-)-2]",0.5 µM,1.1 µM
"OCCN1CCN([C@H]2C[C@H](c3ccc(F)cc3)c3cc(Cl)ccc32)CC1 (single isomer, unassigned) [(-)-3]",0.011 µM,0.21 µM
"CC(C)N1CCN(CCN2CCN([C@@H]3C[C@@H](c4ccc(F)cc4)c4cc(Cl)ccc43)CC2)C1=O (single isomer, unassigned) [(-)-11, (-)-Trans-1-[2-[4-[5-chloro-3-(4-fluorophenyl)-2,3-dihydro-1H-inden-1-yl]piperazin-1-yl]-ethyl]-3-isopropyl-2-imidazolidinone]",0.0011 µM,0.21 µM
"O=C1NCCCN1CCN1CCN([C@@H]2C[C@@H](c3ccc(F)cc3)c3cc(Cl)ccc32)CC1 (single isomer, unassigned) [(-)-34, (-)-Trans-1-[2-[4-[5-chloro-3-(4-fluorophenyl)-2,3-dihydro-1H-inden-1-yl]piperazin-1-yl]ethyl]-tetrahydro-2(1H)-pyrimidinone]",0.0013 µM,0.062 µM
